Legend:
RNS/ROS formation = assay: RNS/ROS production parameter from DILIsym simulation of ROS data; settings: calculated from 24 h HepG2 ROS data; higher = higher risk
Description: To define the DILIsym parameter values for lixivaptan- and WAY-138451-mediated oxidative stress, the 24 h in vitro data were simulated within DILIsym (Fig. 5). The intracellular concentration of each compound was measured by LC/MS/MS analysis. For lixivaptan, the measured intracellular concentration at each dose was used to parameterize the model. For WAY-138451, however, the LC/MS/MS data was inconsistent at low doses due to lower limit of detection issues. Thus, the mean measured cell-to-nominal-media ratio (0.672) was used to estimate intracellular concentrations at each dose. Reproduction of lixivaptan- and WAY-138451-mediated induction of oxidative stress defined the relationship between liver compound concentration and ROS formation with the reactive nitrogen/oxygen species (RNS/ROS) production rate constants listed in Table 2. […]
To define the DILIsym parameter values for lixivaptan- and WAY-138451-mediated oxidative stress, the 24 hour in vitro data were simulated within DILIsym (Figure B12). The intracellular concentration of each compound was measured by LC/MS/MS analysis. For lixivaptan, the measured intracellular concentration at each dose was used to parameterize the model. […] Thus, the mean measured cell-to-nominal-media ratio (0.672) was used to estimate intracellular concentrations at each dose. […]

[1] = design: method as in proprietary data not shown; settings: ref proprietary data not shown, cited from earlier work
human MRP4 = molecular target: T1, human MRP4 (Homo sapiens, UniProt O15439); assay: MRP4 vesicular transport inhibition assay (E217βG, HEK-293 cell membrane vesicles); format: biochemical
T1 construct: host or cells: HEK-293 cell membrane vesicles
T1 sequence (O15439 1-1325): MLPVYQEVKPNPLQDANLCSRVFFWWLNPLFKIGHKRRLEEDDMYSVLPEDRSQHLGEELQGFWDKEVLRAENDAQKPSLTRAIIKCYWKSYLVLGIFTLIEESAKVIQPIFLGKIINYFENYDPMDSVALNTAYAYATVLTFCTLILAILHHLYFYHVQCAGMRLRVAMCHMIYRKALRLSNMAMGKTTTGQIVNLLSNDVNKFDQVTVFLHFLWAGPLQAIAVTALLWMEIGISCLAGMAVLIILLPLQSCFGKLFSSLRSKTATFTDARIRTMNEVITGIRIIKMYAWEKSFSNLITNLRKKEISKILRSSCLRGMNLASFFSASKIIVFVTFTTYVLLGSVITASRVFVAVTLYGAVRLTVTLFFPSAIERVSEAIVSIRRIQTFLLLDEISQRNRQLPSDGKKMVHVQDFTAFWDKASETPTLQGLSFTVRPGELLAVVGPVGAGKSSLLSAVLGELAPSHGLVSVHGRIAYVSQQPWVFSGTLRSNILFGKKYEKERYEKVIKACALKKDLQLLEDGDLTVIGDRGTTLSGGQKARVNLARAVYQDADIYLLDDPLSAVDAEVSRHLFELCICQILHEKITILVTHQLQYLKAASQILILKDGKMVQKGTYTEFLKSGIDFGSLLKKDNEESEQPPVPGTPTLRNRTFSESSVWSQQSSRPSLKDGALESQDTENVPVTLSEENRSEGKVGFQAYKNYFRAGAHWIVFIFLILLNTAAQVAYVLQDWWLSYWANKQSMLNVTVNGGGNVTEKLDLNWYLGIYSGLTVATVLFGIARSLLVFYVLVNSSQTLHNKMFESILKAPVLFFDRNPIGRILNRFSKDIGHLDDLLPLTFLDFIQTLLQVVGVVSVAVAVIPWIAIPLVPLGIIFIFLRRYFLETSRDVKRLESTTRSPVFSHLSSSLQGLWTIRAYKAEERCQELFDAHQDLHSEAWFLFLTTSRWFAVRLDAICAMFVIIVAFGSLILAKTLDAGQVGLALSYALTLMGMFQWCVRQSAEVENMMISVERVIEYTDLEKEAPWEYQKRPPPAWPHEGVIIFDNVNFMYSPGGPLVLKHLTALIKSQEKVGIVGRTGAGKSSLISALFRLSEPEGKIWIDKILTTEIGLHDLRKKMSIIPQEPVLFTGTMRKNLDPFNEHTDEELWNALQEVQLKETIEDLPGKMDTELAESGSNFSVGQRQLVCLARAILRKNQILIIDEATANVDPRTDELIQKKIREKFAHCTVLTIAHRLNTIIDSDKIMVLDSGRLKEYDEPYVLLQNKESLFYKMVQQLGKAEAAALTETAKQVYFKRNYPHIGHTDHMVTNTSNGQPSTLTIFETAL
Description: (§1) The functional impact of lixivaptan, its three metabolites and tolvaptan on the human ABC (efflux) transporters BSEP and MRP3 and MRP4 was assessed for this project using in vitro vesicular transport inhibition assays. The inhibition of the human SLC (uptake) transporter NTCP was assessed using CHO cells stably expressing human NTCP. The concentration ranges used for the five test articles was determined based on the solubility of each compound in the assay solution. All transporter inhibition assays were conducted in triplicate by Solvo Biotechnology (Szeged, Hungary).
Figure B2. […] See Appendix A for more details.

[2] = design: method as in proprietary data not shown; settings: rat tissue distribution study; ref proprietary data not shown; cited from earlier work
human BSEP = molecular target: T2, human BSEP (Homo sapiens, UniProt O95342); assay: BSEP vesicular transport inhibition assay (taurocholate, HEK-293 cell membrane vesicles); format: biochemical
T2 construct: host or cells: HEK-293 cell membrane vesicles
Description: as §1
For the simulation of bile acid transporter inhibition by lixivaptan in DILIsym, parameter values were selected for BSEP canalicular transport, basolateral transport (encompassing both MRP3 and MRP4), and NTCP transport. The parameter values for each include the inhibition constant, defined as the IC50 or Ki value, and the inhibition type, defined as competitive, non-competitive, or mixed inhibition.
In vesicular transport inhibition assays, lixivaptan and its metabolites each inhibited BSEP-mediated probe substrate accumulation (Figure B1) and MRP4-mediated probe substrate accumulation (Figure B2) dose-dependently.
Figure B1. […] See Appendix A for more details.

HepG2 cells = assay: Seahorse XFe96 cellular respiration assay (oxygen consumption rate); format: cell-based; settings: 24 hour incubation
Description: To assess the potential effect of the five test articles on mitochondrial function, cellular respiration assays using a Seahorse XFe96 Flux Analyzer were conducted by Cyprotex (Macclesfield, UK) and overseen by the authors. HepG2 cells were incubated with each test article for 1 or 24 hours and tested for an effect on cellular respiration by measuring the oxygen consumption rate (OCR). Each study was conducted in triplicate. Importantly, the 1 hour culture was conducted in the absence of serum (i.e. no serum protein binding) as is standard for the Seahorse Analyzer assay conditions.

T2 sequence (O95342 whole entry): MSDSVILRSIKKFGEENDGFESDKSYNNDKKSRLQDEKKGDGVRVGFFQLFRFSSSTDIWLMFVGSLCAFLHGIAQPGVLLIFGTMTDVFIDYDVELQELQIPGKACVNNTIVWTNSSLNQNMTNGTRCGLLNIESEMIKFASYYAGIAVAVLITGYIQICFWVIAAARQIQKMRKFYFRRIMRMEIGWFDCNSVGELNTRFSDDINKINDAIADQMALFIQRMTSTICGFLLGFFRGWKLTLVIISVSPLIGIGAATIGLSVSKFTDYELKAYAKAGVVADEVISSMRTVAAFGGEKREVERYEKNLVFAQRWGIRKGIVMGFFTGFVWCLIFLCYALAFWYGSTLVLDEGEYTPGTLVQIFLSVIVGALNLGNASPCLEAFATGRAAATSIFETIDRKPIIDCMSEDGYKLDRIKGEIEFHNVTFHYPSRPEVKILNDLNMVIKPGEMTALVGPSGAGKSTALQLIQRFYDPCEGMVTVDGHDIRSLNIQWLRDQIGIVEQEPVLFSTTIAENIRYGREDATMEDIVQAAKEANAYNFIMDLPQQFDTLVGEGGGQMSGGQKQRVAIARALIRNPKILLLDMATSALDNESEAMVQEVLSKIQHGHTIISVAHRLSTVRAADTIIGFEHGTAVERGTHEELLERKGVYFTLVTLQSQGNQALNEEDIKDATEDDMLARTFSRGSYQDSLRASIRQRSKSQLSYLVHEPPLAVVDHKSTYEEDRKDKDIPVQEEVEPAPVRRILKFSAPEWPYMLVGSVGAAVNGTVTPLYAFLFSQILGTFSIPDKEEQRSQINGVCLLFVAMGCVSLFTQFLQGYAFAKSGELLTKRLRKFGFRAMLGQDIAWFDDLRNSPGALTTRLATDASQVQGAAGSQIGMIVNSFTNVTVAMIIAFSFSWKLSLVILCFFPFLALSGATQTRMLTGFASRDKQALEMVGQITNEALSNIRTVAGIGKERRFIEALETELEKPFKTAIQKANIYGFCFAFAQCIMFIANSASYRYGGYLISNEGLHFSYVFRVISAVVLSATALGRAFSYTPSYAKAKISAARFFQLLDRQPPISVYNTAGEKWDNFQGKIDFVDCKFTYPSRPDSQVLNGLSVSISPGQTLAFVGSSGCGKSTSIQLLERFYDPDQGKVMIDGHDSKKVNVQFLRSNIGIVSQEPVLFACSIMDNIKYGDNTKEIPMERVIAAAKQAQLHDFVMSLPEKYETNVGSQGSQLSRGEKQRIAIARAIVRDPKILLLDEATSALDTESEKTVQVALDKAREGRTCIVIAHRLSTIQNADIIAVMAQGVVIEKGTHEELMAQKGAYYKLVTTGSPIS

## Cc1ccc(F)cc1C(=O)Nc1ccc(C(=O)N2Cc3cccn3Cc3ccccc32)c(Cl)c1 [Lixivaptan, lixivaptan]
RNS/ROS formation
  RNS/ROS production rate constant (DILIsym parameter): 0.151 M⁻¹ s⁻¹
[1]; human
  plasma fraction unbound: less than 1%
[1]
  blood:plasma ratio: 0.6
Human MRP4
  inhibition of MRP4-mediated probe substrate accumulation: inhibited
[2]
  measured liver-to-plasma ratio: 17
Human BSEP; read-out: BSEP inhibition constant (IC50)
  IC50: 15 µM
Human BSEP; vesicular transport inhibition assay
  inhibition of BSEP-mediated probe substrate accumulation: inhibited
HepG2 cells
  effect on HepG2 oxygen consumption rate (mitochondrial respiration): reduce the HepG2 oxygen consumption rate (OCR) in a dose-dependent manner

Reference: paper PMC6944674, “Comparison of the Hepatotoxic Potential of Two Treatments for Autosomal-Dominant Polycystic Kidney DiseaseUsing Quantitative Systems Toxicology Modeling” (Pharmaceutical Research, 2020)
